Among the test systems are BT-549 breast; CAKI-1 renal; HOP-92 NSCLC; LOX IMVI melanoma; MOLT-4 leukemia; NCI-H23 lung; NCI/ADR-RES ovarian; OVCAR-8 ovarian; SNB-19 CNS; SNB-75 CNS.
Assay in all cases: growth of human tumour cells (NCI), 48 h

Where “and” joins values, the source holds several entries; their conditions need not be identical. Identical values can stand only once.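 Results reflect a 48-hour exposure of cells in 96-well plates to compound at five concentrations. Here, GI50 denotes the concentration required for 50% inhibition of growth. At the TGI there is no net growth.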

Regarding `COc1ccc2c(c1)C(=O)/C(=C/c1ccc(O)cc1)O2`, the GI50 with BT-549 breast was 12.7 µM; in the experiment with CAKI-1 renal, 1.88 µM; in the experiment on HOP-92 NSCLC it was 3.37 µM; in the experiment on LOX IMVI melanoma, 3.29 µM; in the experiment on MOLT-4 leukemia, 2380 nM; in the experiment with NCI-H23 lung, 13.9 µM. Further, the GI50 was 26.1 µM with NCI/ADR-RES ovarian, 27.2 µM in the experiment with OVCAR-8 ovarian, 43 µM in the experiment on SNB-19 CNS and 8.82 µM with SNB-75 CNS. For the same compound, the TGI came out at 29.8 µM in the experiment with BT-549 breast; 5.66 µM with CAKI-1 renal; 9.65 µM with HOP-92 NSCLC; 14 µM in the experiment on LOX IMVI melanoma; 6.06 µM in the experiment on MOLT-4 leukemia; 34.4 µM with NCI-H23 lung. For the same compound, the TGI with NCI/ADR-RES ovarian was over 83.6 µM; in the experiment with OVCAR-8 ovarian, over 75 µM; with SNB-19 CNS it was over 100 µM; with SNB-75 CNS, over 32.3 µM.
As to `O=c1oc2ccc(F)cc2c(=O)n1-c1ccc(I)cc1F`, the GI50 in the experiment on BT-549 breast is 0.486 µM; in the experiment with CAKI-1 renal it was 0.337 µM; with HOP-92 NSCLC, 0.206 µM; in the experiment with LOX IMVI melanoma it was 0.374 µM; with MOLT-4 leukemia, 1070 nM; in the experiment on NCI-H23 lung, 0.311 µM. The GI50 with NCI/ADR-RES ovarian is 0.522 µM; with OVCAR-8 ovarian, 0.872 µM; in the experiment with SNB-19 CNS, 0.409 µM; in the experiment with SNB-75 CNS it was 0.368 µM. Also, the TGI with BT-549 breast was determined as 4.09 µM; in the experiment with CAKI-1 renal, 2.19 µM; with HOP-92 NSCLC, 0.577 µM; in the experiment with LOX IMVI melanoma it was 2.29 µM; in the experiment on MOLT-4 leukemia, 3.65 µM; in the experiment on NCI-H23 lung, 1.59 µM. The TGI in the experiment with NCI/ADR-RES ovarian was 5.89 µM; with OVCAR-8 ovarian, over 41.9 µM; with SNB-19 CNS it was over 54.3 µM; in the experiment with SNB-75 CNS, 10.4 µM.
With `NC(=O)c1ccc(I)c([N+](=O)[O-])c1`, the GI50 is over 100 µM in the experiment with BT-549 breast; 32.2 µM in the experiment on CAKI-1 renal; over 70.6 µM in the experiment on HOP-92 NSCLC; 44.5 µM in the experiment with LOX IMVI melanoma; over 71200 nM in the experiment on MOLT-4 leukemia; 76.1 µM with NCI-H23 lung. For the same compound, the GI50 in the experiment with NCI/ADR-RES ovarian, with OVCAR-8 ovarian, with SNB-19 CNS and with SNB-75 CNS was over 100 µM in each case. Also, the TGI is over 100 µM with BT-549 breast; over 57.4 µM in the experiment with CAKI-1 renal; over 100 µM with HOP-92 NSCLC; over 100 µM in the experiment on LOX IMVI melanoma; over 100 µM in the experiment on MOLT-4 leukemia; over 100 µM with NCI-H23 lung. The TGI in the experiment on NCI/ADR-RES ovarian, with OVCAR-8 ovarian, with SNB-19 CNS and in the experiment with SNB-75 CNS was over 100 µM in each case.
As for `CC1(C)N=C(N)N=C(N)N1c1cccc(CCCCc2ccc(Cl)c(S(=O)(=O)F)c2)c1`, the GI50 was 1.35 µM in the experiment on BT-549 breast; 21.3 µM in the experiment with CAKI-1 renal; 4.7 µM in the experiment on HOP-92 NSCLC; 0.433 µM in the experiment with LOX IMVI melanoma; 1820 nM with MOLT-4 leukemia; 2.83 µM with NCI-H23 lung. Besides, the GI50 in the experiment on NCI/ADR-RES ovarian was over 100 µM; in the experiment on OVCAR-8 ovarian, 9.28 µM; in the experiment on SNB-19 CNS it was 3.3 µM; in the experiment on SNB-75 CNS it was 10.3 µM. For the same compound, the TGI was 17.7 µM with BT-549 breast; over 100 µM in the experiment with CAKI-1 renal; 21.4 µM with HOP-92 NSCLC; 16.1 µM in the experiment on LOX IMVI melanoma; 19.2 µM in the experiment with MOLT-4 leukemia; 18.1 µM in the experiment with NCI-H23 lung. The TGI in the experiment on NCI/ADR-RES ovarian was over 100 µM; in the experiment on OVCAR-8 ovarian, over 100 µM; in the experiment with SNB-19 CNS, 18.4 µM; with SNB-75 CNS it was 22.4 µM.
For the compound `O=C1CC=C2C3CC4N(CCC45c4ccccc4N1C25)C/C3=C\CO` (stereo not given), the TGI with BT-549 breast, in the experiment on CAKI-1 renal, with HOP-92 NSCLC, in the experiment with LOX IMVI melanoma, in the experiment with MOLT-4 leukemia and with NCI-H23 lung was over 100 µM each time. For the same compound, the TGI in the experiment on NCI/ADR-RES ovarian, with OVCAR-8 ovarian, in the experiment with SNB-19 CNS and with SNB-75 CNS was over 100 µM throughout.
Regarding `C[C@]1(c2nc3c(C(N)=O)cccc3[nH]2)CCCN1`, the GI50 with BT-549 breast is over 100 µM; in the experiment on CAKI-1 renal, 59 µM and 74.9 µM; with HOP-92 NSCLC it was over 67.9 µM; in the experiment on LOX IMVI melanoma, 66.1 µM and 97.7 µM; in the experiment on MOLT-4 leukemia it was over 100000 nM; with NCI-H23 lung it was over 100 µM. Moreover, the GI50 in the experiment on NCI/ADR-RES ovarian was over 100 µM; in the experiment with OVCAR-8 ovarian, 69.5 µM and 99.8 µM; with SNB-19 CNS, over 100 µM; in the experiment on SNB-75 CNS it was over 100 µM. The TGI in the experiment on BT-549 breast, in the experiment with CAKI-1 renal, with HOP-92 NSCLC, in the experiment with LOX IMVI melanoma, in the experiment with MOLT-4 leukemia and in the experiment with NCI-H23 lung was over 100 µM throughout. Further, the TGI in the experiment with NCI/ADR-RES ovarian, in the experiment on OVCAR-8 ovarian, in the experiment on SNB-19 CNS and in the experiment on SNB-75 CNS was over 100 µM each time.
